Test results reported in US11427567B2, “Imidazolyl pyrimidinylamine compounds as CDK2 inhibitors” (Incyte Corporation, priority 2019, dated 2022).

biological target: CDK2/Cyclin E1 (Homo sapiens (Human), UniProt P24941); assay: CDK2/Cyclin E1 HTRF enzyme activity assay (Example A); assay type: biochemical; conditions: 1 mM ATP
Protocol: Assays were conducted in white 384-well polystyrene plates in a final reaction volume of 8 μL. […] HTRF signals were read after 1 hour at room temperature on a PHERAstar FS plate reader (BMG Labtech). Data was analyzed with IDBS XLFit and GraphPad Prism 5.0 software using a three or four parameter dose response curve to determine IC50 for each compound.

| SMILES | IC50 |
| --- | --- |
| CCN(CC)Cc1ccc(-n2cnc(-c3nc(NC4CCN(S(C)(=O)=O)CC4)ncc3C(F)(F)F)c2)c(C(F)(F)F)c1 [Example 258, 4-(1-(4-((Diethylamino)methyl)-2-(trifluoromethyl)phenyl)-1H-imidazol-4-yl)-N-(1-(methylsulfonyl)piperidin-4-yl)-5-(trifluoromethyl)pyrimidin-2-amine] | ≤ 50 nM |
| CS(=O)(=O)N1CCC(Nc2ncc(C(F)(F)F)c(-c3cn(-c4ccc(C(F)(F)F)nc4C#N)cn3)n2)CC1 [Example 64, 3-(4-(2-((1-(Methylsulfonyl)piperidin-4-yl)amino)-5-(trifluoromethyl)pyrimidin-4-yl)-1H-imidazol-1-yl)-6-(trifluoromethyl)picolinonitrile] | ≤ 50 nM |
| CS(=O)(=O)N1CCC(Nc2ncc(C(F)(F)F)c(-c3cn(-c4ccc(C#N)cc4C#N)cn3)n2)CC1 [Example 59, 4-(4-(2-((1-(Methylsulfonyl)piperidin-4-yl)amino)-5-(trifluoromethyl)pyrimidin-4-yl)-1H-imidazol-1-yl)isophthalonitrile] | ≤ 50 nM |
| Cc1ccc(-n2cnc(-c3nc(NC4CCN(S(C)(=O)=O)CC4)ncc3C(F)(F)F)c2)c(C(F)(F)F)n1 [Example 44, 4-(1-(6-Methyl-2-(trifluoromethyl)pyridin-3-yl)-1H-imidazol-4-yl)-N-(1-(methylsulfonyl)piperidin-4-yl)-5-(trifluoromethyl)pyrimidin-2-amine] | ≤ 50 nM |
| CS(=O)(=O)N1CC[C@H](Nc2ncc(C(F)(F)F)c(-c3cn(-c4cccc(C#N)c4Cl)cn3)n2)[C@H](F)C1 [Example 45, 2-Chloro-3-(4-(2-(((3R,4S)-3-fluoro-1-(methylsulfonyl)piperidin-4-yl)amino)-5-(trifluoromethyl)pyrimidin-4-yl)-1H-imidazol-1-yl)benzonitrile] | ≤ 50 nM |
| CS(=O)(=O)N1CCC(Nc2ncc(C(F)(F)F)c(-c3cn(-c4cccc(C(O)C5CC5)c4Cl)cn3)n2)CC1 (stereo not drawn) [Example 86, (2-chloro-3-(4-(2-((1-(methylsulfonyl)piperidin-4-yl)amino)-5-(trifluoromethyl)pyrimidin-4-yl)-1H-imidazol-1-yl)phenyl)(cyclopropyl)methanol] | ≤ 50 nM |
| Cc1c(-c2nc(NC3CCN(S(C)(=O)=O)CC3)ncc2C(F)(F)F)ncn1C [Example 15, 4-(1,5-Dimethyl-1H-imidazol-4-yl)-N-(1-(methylsulfonyl)piperidin-4-yl)-5-(trifluoromethyl)pyrimidin-2-amine] | 50 to 200 nM |
| CCN1CCN(c2nccc(-n3cnc(-c4nc(NC5CCN(S(C)(=O)=O)CC5)ncc4C(F)(F)F)c3)c2C#N)CC1 [Example 315, 2-(4-Ethylpiperazin-1-yl)-4-(4-(2-((1-(methylsulfonyl)piperidin-4-yl)amino)-5-(trifluoromethyl)pyrimidin-4-yl)-1H-imidazol-1-yl)nicotinonitrile] | ≤ 50 nM |
| CS(=O)(=O)N1CCC(Nc2ncc(C(F)(F)F)c(-c3cn(-c4cccc(F)c4Cl)cn3)n2)CC1 [Example 65, 4-(1-(2-Chloro-3-fluorophenyl)-1H-imidazol-4-yl)-N-(1-(methylsulfonyl)piperidin-4-yl)-5-(trifluoromethyl)pyrimidin-2-amine] | ≤ 50 nM |
| CC1(O)CCN(Cc2ccc(-n3cnc(-c4nc(NC5CCN(S(C)(=O)=O)CC5)ncc4C(F)(F)F)c3)c(C(F)(F)F)c2)CC1 [Example 262, 4-Methyl-1-(4-(4-(2-((1-(methylsulfonyl)piperidin-4-yl)amino)-5-(trifluoromethyl)pyrimidin-4-yl)-1H-imidazol-1-yl)-3-(trifluoromethyl)benzyl) piperidin-4-ol] | ≤ 50 nM |
| CC1CN(Cc2ccc(-n3cnc(-c4nc(NC5CCN(S(C)(=O)=O)CC5)ncc4C(F)(F)F)c3)c(Cl)c2F)C1 [Example 270, 4-(1-(2-Chloro-3-fluoro-4-((3-methylazetidin-1-yl)methyl)phenyl)-1H-imidazol-4-yl)-N-(1-(methylsulfonyl)piperidin-4-yl)-5-(trifluoromethyl)pyrimidin-2-amine] | ≤ 50 nM |
| Cc1nc(-c2nc(NC3CCN(S(C)(=O)=O)CC3)ncc2C(F)(F)F)cn1-c1ccc(CN(C)C)cc1F [Example 279, 4-(1-(4-((Dimethylamino)methyl)-2-fluorophenyl)-2-methyl-1H-imidazol-4-yl)-N-(1-(methylsulfonyl)piperidin-4-yl)-5-(trifluoromethyl)pyrimidin-2-amine] | ≤ 50 nM |
| CCN(CC)Cc1ccc(-n2cc(-c3nc(NC4CCN(S(C)(=O)=O)CC4)ncc3C(F)(F)F)nc2C)c(F)c1 [Example 357, 4-(1-(4-((Diethylamino)methyl)-2-fluorophenyl)-2-methyl-1H-imidazol-4-yl)-N-(1-(methylsulfonyl)piperidin-4-yl)-5-(trifluoromethyl)pyrimidin-2-amine] | ≤ 50 nM |
| Cn1cnc(S(=O)(=O)N2CCC(Nc3ncc(C(F)(F)F)c(-c4ncn(C)c4Cl)n3)CC2)c1 [Example 20, 4-(5-Chloro-1-methyl-1H-imidazol-4-yl)-N-(1-((1-methyl-1H-imidazol-4-yl)sulfonyl)piperidin-4-yl)-5-(trifluoromethyl)pyrimidin-2-amine] | ≤ 50 nM |

Continued, values first:

| IC50 | SMILES |
| --- | --- |
| ≤ 50 nM | CCc1ccc(-n2cnc(-c3nc(NC4CCN(S(C)(=O)=O)CC4)ncc3C(F)(F)F)c2)c(C(F)(F)F)n1 [Example 95, 4-(1-(6-Ethyl-2-(trifluoromethyl)pyridin-3-yl)-1H-imidazol-4-yl)-N-(1-(methylsulfonyl)piperidin-4-yl)-5-(trifluoromethyl) pyrimidin-2-amine] |
| ≤ 50 nM | CS(=O)(=O)N1CCC(Nc2ncc(C(F)(F)F)c(-c3cn(-c4ccc(N5CCC(N6CCCC6)CC5)cc4Cl)cn3)n2)CC1 [Example 146, 4-(1-(2-Chloro-4-(4-(pyrrolidin-1-yl)piperidin-1-yl)-phenyl)-1H-imidazol-4-yl)-N-(1-(methylsulfonyl)-piperidin-4-yl)-5-(trifluoromethyl)-pyrimidin-2-amine] |
| ≤ 50 nM | CCc1ccc(-n2cnc(-c3nc(NC4CCN(S(C)(=O)=O)CC4)ncc3C(F)(F)F)c2)c(C#N)n1 [Example 41, 6-Ethyl-3-(4-(2-((1-(methylsulfonyl)piperidin-4-yl)amino)-5-(trifluoromethyl)pyrimidin-4-yl)-1H-imidazol-1-yl)picolinonitrile] |
| ≤ 50 nM | C[C@@H]1CN(S(C)(=O)=O)CC[C@@H]1Nc1ncc(C(F)(F)F)c(-c2cn(CC(C)(C)O)cn2)n1 [Example 327, 2-Methyl-1-(4-(2-(((3R,4S)-3-methyl-1-(methylsulfonyl)piperidin-4-yl)amino)-5-(trifluoromethyl)pyrimidin-4-yl)-1H-imidazol-1-yl)propan-2-ol] |
| ≤ 50 nM | CN(C)Cc1ccc(-n2cnc(-c3nc(N[C@H]4CCN(S(C)(=O)=O)C[C@H]4F)ncc3C(F)(F)F)c2)c(Cl)c1 [Example 183, 4-(1-(2-Chloro-4-((dimethylamino)methyl)phenyl)-1H-imidazol-4-yl)-N-((3R,4S)-3-fluoro-1-(methylsulfonyl)piperidin-4-yl)-5-(trifluoromethyl)pyrimidin-2-amine] |
| ≤ 50 nM | CS(=O)(=O)N1CC[C@@H](Nc2ncc(C(F)(F)F)c(-c3cn(CC(F)F)cn3)n2)[C@H](F)C1 [Example 331, 4-(1-(2,2-Difluoroethyl)-1H-imidazol-4-yl)-N-((3R,4R)-3-fluoro-1-(methylsulfonyl)piperidin-4-yl)-5-(trifluoromethyl)pyrimidin-2-amine] |
| ≤ 50 nM | CS(=O)(=O)N1CCC(Nc2ncc(C(F)(F)F)c(-c3cn(-c4cccc(CN5CC(C#N)C5)c4Cl)cn3)n2)CC1 [Example 463, 1-(2-Chloro-3-(4-(2-((1-(methylsulfonyl)piperidin-4-yl)amino)-5-(trifluoromethyl)pyrimidin-4-yl)-1H-imidazol-1-yl)benzyl)azetidine-3-carbonitrile] |
| ≤ 50 nM | Cn1ccc(S(=O)(=O)N2CC[C@@H](Nc3ncc(C(F)(F)F)c(-c4cn(CC(C)(C)O)cn4)n3)[C@H](F)C2)n1 [Example 335, 1-(4-(2-(((3R,4R)-3-Fluoro-1-((1-methyl-1H-pyrazol-3-yl)sulfonyl)piperidin-4-yl)amino)-5-(trifluoromethyl)pyrimidin-4-yl)-1H-imidazol-1-yl)-2-methylpropan-2-ol] |
| ≤ 50 nM | CS(=O)(=O)N1CCC(Nc2ncc(C(F)(F)F)c(-c3cn(-c4ccc(CN5CC[C@@H](O)C5)cc4C#N)cn3)n2)CC1 [Example 342, (R)-5-((3-Hydroxypyrrolidin-1-yl)methyl)-2-(4-(2-((1-(methylsulfonyl)piperidin-4-yl)amino)-5-(trifluoromethyl)pyrimidin-4-yl)-1H-imidazol-1-yl)benzonitrile] |
| ≤ 50 nM | CS(=O)(=O)N1CCC(Nc2ncc(C(F)(F)F)c(-c3cn(-c4cccc(-c5ccnc(N)c5)c4Cl)cn3)n2)CC1 [Example 96, 4-(1-(3-(2-Aminopyridin-4-yl)-2-chlorophenyl)-1H-imidazol-4-yl)-N-(1-(methylsulfonyl)piperidin-4-yl)-5-(trifluoromethyl)pyrimidin-2-amine] |
| ≤ 50 nM | C[C@@H]1CN(S(C)(=O)=O)CC[C@@H]1Nc1ncc(C(F)(F)F)c(-c2cn(-c3ccc(C#N)cc3Cl)cn2)n1 [Example 172, 3-Chloro-4-(4-(2-(((3R,4S)-3-methyl-1-(methylsulfonyl)-piperidin-4-yl)-amino)-5-(trifluoro-methyl)pyrimidin-4-yl)-1H-imidazol-1-yl)benzonitrile] |
| ≤ 50 nM | CS(=O)(=O)N1CCC(Nc2ncc(Cl)c(-c3cn(-c4ccc(C#N)cc4Cl)cn3)n2)CC1 [Example 171, 3-Chloro-4-(4-(5-chloro-2-((1-(methylsulfonyl)-piperidin-4-yl)-amino)pyrimidin-4-yl)-1H-imidazol-1-yl)benzonitrile] |
| ≤ 50 nM | CCN(C)Cc1ccc(-n2cc(-c3nc(NC4CCN(S(C)(=O)=O)CC4)ncc3C(F)(F)F)nc2C)c(F)c1 [Example 358, 4-(1-(4-((Ethyl(methyl)amino)methyl)-2-fluorophenyl)-2-methyl-1H-imidazol-4-yl)-N-(1-(methylsulfonyl)piperidin-4-yl)-5-(trifluoromethyl)pyrimidin-2-amine] |
